Data: US6967213B2, “Isothiazole derivatives, process for the preparation thereof, and pharmaceutical composition including the same” (CJ Corp., priority 2003, dated 2005)

Columns and labels:
cyclooxygenase-1 = molecular target: T1, cyclooxygenase-1 (Homo sapiens, UniProt P23219); assay: Inhibitive effects against cyclooxygenase-1 using U-937 (PGE2 quantitation); type: cell-based; conditions: U-937 cells, arachidonic acid substrate
T1 construct: A cultured U-937 (humane lymphoma cell with Deposit No. 21593, obtained from Korean cell line bank) was centrifuged to collect the pellet; endogenous in cells; host or cells: U-937 (Korean cell line bank, Deposit No. 21593)
T1 sequence (P23219 24-599): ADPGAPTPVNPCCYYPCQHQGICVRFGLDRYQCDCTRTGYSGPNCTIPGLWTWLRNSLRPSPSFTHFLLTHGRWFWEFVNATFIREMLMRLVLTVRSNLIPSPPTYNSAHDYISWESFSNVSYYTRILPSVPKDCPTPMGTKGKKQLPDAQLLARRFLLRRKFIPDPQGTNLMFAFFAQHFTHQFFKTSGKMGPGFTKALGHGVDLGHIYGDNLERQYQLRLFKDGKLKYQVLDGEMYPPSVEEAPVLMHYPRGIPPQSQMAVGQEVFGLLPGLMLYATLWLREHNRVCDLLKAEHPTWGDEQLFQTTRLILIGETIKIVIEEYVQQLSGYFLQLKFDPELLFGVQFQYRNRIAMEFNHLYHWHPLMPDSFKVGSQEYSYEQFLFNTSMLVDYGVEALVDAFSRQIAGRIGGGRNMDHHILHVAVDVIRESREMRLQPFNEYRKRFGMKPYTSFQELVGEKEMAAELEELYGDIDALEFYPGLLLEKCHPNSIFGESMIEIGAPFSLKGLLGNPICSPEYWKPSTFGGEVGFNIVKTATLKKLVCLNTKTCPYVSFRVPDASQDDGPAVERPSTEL
Method: Then, the pellet was diluted with 1×HBSS(Hank's balanced salt solution) at the concentration of 1×10^6 cells/ml, and 1 ml of them was transferred into each of 12-well plates.
Arachidonic acid as a substrate was dissolved in ethanol to prepare a stock solution with a concentration of 10 mM, followed by diluting with 1×HBSS to prepare the solution of 1 mM. 10 μl of 1 mM Arachidonic acid solution was added to each of the treated wells and the mixture was cultured at 37° C. in CO2 incubator for 30 minutes. The cell solution of each well was collected in the centrifuge tube and centrifuged at 4° C., for 5 minutes at 10,000 rpm. As PGE2 existed in the supernatant separated from collected cell, the concentration of PGE2 was quantitated by using monoclonal kit from Cayman Chemicals, and the concentration of samples and DMSO vehicle were compared to estimate the inhibition ratio (%) of each compound against cyclooxygenase-1. Ultimately, the inhibition effect against the cyclooxygenase-1 enzyme was obtained from the result.

cyclooxygenase-2 = molecular target: T2, cyclooxygenase-2 (Mus musculus, UniProt Q05769); assay: Inhibitive effects against cyclooxygenase-2 using Raw 264.7 (interferon/LPS-induced PGE2, EIA); type: cell-based; conditions: Raw 264.7 cells, interferon + LPS, 18 hours
T2 construct: After seeding 2×10^6 cells of Raw 264.7 cell (obtained from Korean cell line bank, Deposit No. 40071) into each of 12-well plates; endogenous in cells; host or cells: Raw 264.7 (Korean cell line bank, Deposit No. 40071), aspirin-pretreated, induced with interferon and LPS
T2 sequence (Q05769 18-604): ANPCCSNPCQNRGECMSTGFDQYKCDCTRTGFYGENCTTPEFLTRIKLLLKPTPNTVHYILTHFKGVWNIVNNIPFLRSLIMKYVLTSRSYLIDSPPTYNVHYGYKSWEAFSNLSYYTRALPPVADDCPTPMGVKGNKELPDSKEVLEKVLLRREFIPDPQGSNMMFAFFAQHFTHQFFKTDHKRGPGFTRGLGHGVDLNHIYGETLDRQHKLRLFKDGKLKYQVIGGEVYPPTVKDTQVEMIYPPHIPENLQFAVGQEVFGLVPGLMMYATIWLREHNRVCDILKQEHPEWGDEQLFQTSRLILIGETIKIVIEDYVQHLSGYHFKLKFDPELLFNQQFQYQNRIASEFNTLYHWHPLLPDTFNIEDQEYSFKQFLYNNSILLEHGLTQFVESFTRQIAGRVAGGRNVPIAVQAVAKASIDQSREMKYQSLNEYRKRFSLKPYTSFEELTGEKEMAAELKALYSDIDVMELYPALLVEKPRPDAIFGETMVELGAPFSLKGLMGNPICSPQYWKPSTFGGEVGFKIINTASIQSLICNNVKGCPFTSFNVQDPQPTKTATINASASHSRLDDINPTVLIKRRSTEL
Method: In addition, the samples were treated with 100 units/ml of interferon ? and 100 ng/ml of lipopolysaccharide(LPS), and cultured for 18 hours. Then, the media was transferred to other test tubes and PGE 2 was quantitated by using EIA kit (Cayman Chemicals).
The % inhibition was calculated as follows, and the results were described in Table 1.
% inhibition={(PGE2 concentration compensated with interferon ? and LPS-PGE2 concentration compensated with analysis sample)/(PGE2 concentration compensated with interferon ? and LPS)}×100

| SMILES | Inhibitory effects of cyclooxygenase (COX): COX-1 (10 μM) (cyclooxygenase-1) [% inhibition] | Inhibitory effects of cyclooxygenase (COX): COX-2 (30 nM) (cyclooxygenase-2) [% inhibition] |
| --- | --- | --- |
| Cc1snc(-c2ccc(F)cc2)c1-c1ccc(S(C)(=O)=O)cc1 [Example 9, 3-(4-fluorophenyl)-4-(4-methanesulfonyl)-5-methyl-isothiazole] | 67.2 | 65.1 |
| Cc1snc(-c2ccc(Br)cc2)c1-c1ccc(S(C)(=O)=O)cc1 [Example 7, 3-(4-bromophenyl)-4-(4-methanesulfonylphenyl)-5-methyl-isothiazole] | 45.7 | 65.6 |
| COc1ccc(-c2nsc(C)c2-c2ccc(S(C)(=O)=O)cc2)cc1 [Example 8, 3-(4-methoxyphenyl)-4-(4-methanesulfonylphenyl)-5-methyl-isothiazole] | 80.1 | 76.4 |
| Cc1snc(-c2ccc(Br)cc2)c1-c1ccc(S(N)(=O)=O)cc1 [Example 3, 4-[3-(4-bromophenyl)-5-methyl-isothiazole-4-yl]-benzenesulfonamide] | 38.8 | 58.5 |
| Cc1snc(-c2ccccc2)c1-c1ccc(S(C)(=O)=O)cc1 [Example 6, 4-(4-methanesulfonylphenyl)-5-methyl-3-phenyl-isothiazole] | 56.4 | 69.0 |
| Cc1snc(-c2ccccc2)c1-c1ccc(S(N)(=O)=O)cc1 [Example 2, 4-(5-methyl-3-phenyl-isothiazole-4-yl)-benzenesulfonamide] | 35.5 | 60.2 |
| COc1ccc(-c2nsc(C)c2-c2ccc(S(N)(=O)=O)cc2)cc1 [Example 4, 4-[3-(4-methoxyphenyl)-5-methyl-isothiazole-4-yl]-benzenesulfonamide] | 79.5 | 67.7 |
| Cc1snc(-c2ccc(S(C)(=O)=O)cc2)c1-c1ccc(F)cc1 [Example 1, 4-(4-fluorophenyl)-3-(4-methanesulfonyl)-5-methyl-isothiazole] | 29.8 | 63.7 |
| Cc1snc(-c2ccc(F)cc2)c1-c1ccc(S(N)(=O)=O)cc1 [Example 5, 4-[3-(4-fluorophenyl)-5-methyl-isothiazole-4-yl]-benzenesulfonamide] | 77.8 | 72.3 |
